Reference: patent publication US20250066377A1, “AMINO CHROMEN-2-ONE MODULATORS OF POLRMT” (Pretzel Therapeutics, Inc., priority 2021, published 2025)

The molecules below were run against POLRMT (Homo sapiens (Human), UniProt O00411) (assay: POLRMT homogeneous TR-FRET mitochondrial transcription assay). Conditions: inhibition of POLRMT; TR-FRET detection of 407 bp RNA transcript; 7.5 nM POLRMT, 15 nM TFB2M, 30 nM TFAM, 60 minutes at 37° C.
Type: biochemical
Description: The inhibitory activity of the compounds of the present invention against POLRMT were determined by assays based on Bergbrede, T., et al., “An adaptable high-throughput technology enabling the identification of specific transcription modulators,” SLAC Discov., 22, 378-386 (2017).
The ability of some compounds of the present invention to inhibit POLRMT were determined in a homogeneous TR-FRET Assay using high-throughput screening in a 384-well plate format. This method is used to monitor the activity of mitochondrial transcription through measurement of its product, a 407 bp long RNA transcript. Detection of the product is facilitated by hybridization of two DNA-oligonucleotide probes to specific and adjacent sequences within the RNA product sequence. Upon annealing of the probes, two fluorophores are coupled directly to an acceptor nucleotide probe (ATTO647, 5′), or introduced via a coupled streptavidin with a biotinylated donor nucleotide probe (Europium cryptate) that is brought into sufficient proximity to serve as a fluorescence-donor-acceptor pair. Thus, a FRET signal at 665 nm is generated upon excitation at 340 nm.
Proteins used as transcription factors (POLRMT: NP_005026.3, TFAM: NP_003192.1, TFB2M: NP_071761.1) are diluted from their stocks to working concentrations of 1 μM, 20 μM and 4 μM respectively, in a dilution buffer containing 20 mM Tris-HCl (pH 8.0), 200 mM NaCl, 10% (v/v) glycerol, 1 mM Dithiothreitol (DTT), 0.5 mM EDTA.
DNA template is a pUC18 plasmid with the mitochondrial light strand promotor sequence (1-477) cloned between HindIII and BamHI sites. The DNA template is restriction linearized proximal to the promotor 3′-end (pUC-LSP).
The reaction mixture (10 uL) containing 7.5 nM POLRMT, 15 nM of TFB2M, 30 nM of TFAM, 0.5 nM of DNA template and 500 μM nucleotide triphosphate mix (NTPs) in a reaction buffer (containing 10 mM Tris-HCl (pH 7.5), 10 mM MgCl2, 40 mM NaCl, 10 mM DTT, 0.005% (w/v) Tween-20, 160 units/ml Rnase inhibitor and 0.1 mg/mL BSA) are dispensed to compounds in microplates, using a Thermo Multidrop® dispenser, and incubated at 37° C. in a VWR INCU-Line incubator for 60 minutes after mixing. No nucleotide triphosphate mix is added to negative control samples. Microplates with compounds to be tested in the assay are prepared from 10 mM compound stocks in 100% DMSO, equal amounts of DMSO without any compound are added to positive control and negative control samples.
During the incubation, a mix of the detection reagents is prepared in a buffer such that the enzymatic reaction is terminated due to chelating of Mg-ions and increased ionic strength, containing 50 mM Tris-HCl (pH 7.5), 700 mM NaCl, 20 mM EDTA, and 0.01% (w/v) Tween-20. Europium-streptavidin is pre-incubated with a 200-fold molar excess of a random sequence oligonucleotide to block unspecific binding of oligo, for two hours at ambient temperature in the dark. Afterwards, the blocked Europium-streptavidin is kept on ice until use.
At the end of the enzymatic reaction time, 5 μL detection oligo mix in the detection buffer is added, and assay plates are mixed and kept at ambient temperature for one hour, protected from light. The concentration of the Acceptor nucleotide oligo (e.g., ATTO647N-5′-[…]-3′) and Donor nucleotide oligo (e.g., bio-5′-AACACATCTCT(-bio)GCCAAACCCCA-bio-3′) in each assay well is 1 nM, and 3 nM, respectively.
After incubation with oligo mix, 5 μL of pre-blocked Europium-streptavidin reagent is dispensed to each assay well, assay plates are again mixed and kept at ambient temperature for one hour, protected from light.
The generated signal is measured with BMG Pherastar microtiter plate reader with a TRF light unit, using excitation at 340 nm, an integration time of 200 μs, and a delay time of 100 μs, before detection at 620 nm and 665 nm. The ratio of donor- and acceptor-fluorescence is used as a measure of the generated transcript product (i.e. enzymatic activity).

POLRMT, sequence (O00411 42-1230): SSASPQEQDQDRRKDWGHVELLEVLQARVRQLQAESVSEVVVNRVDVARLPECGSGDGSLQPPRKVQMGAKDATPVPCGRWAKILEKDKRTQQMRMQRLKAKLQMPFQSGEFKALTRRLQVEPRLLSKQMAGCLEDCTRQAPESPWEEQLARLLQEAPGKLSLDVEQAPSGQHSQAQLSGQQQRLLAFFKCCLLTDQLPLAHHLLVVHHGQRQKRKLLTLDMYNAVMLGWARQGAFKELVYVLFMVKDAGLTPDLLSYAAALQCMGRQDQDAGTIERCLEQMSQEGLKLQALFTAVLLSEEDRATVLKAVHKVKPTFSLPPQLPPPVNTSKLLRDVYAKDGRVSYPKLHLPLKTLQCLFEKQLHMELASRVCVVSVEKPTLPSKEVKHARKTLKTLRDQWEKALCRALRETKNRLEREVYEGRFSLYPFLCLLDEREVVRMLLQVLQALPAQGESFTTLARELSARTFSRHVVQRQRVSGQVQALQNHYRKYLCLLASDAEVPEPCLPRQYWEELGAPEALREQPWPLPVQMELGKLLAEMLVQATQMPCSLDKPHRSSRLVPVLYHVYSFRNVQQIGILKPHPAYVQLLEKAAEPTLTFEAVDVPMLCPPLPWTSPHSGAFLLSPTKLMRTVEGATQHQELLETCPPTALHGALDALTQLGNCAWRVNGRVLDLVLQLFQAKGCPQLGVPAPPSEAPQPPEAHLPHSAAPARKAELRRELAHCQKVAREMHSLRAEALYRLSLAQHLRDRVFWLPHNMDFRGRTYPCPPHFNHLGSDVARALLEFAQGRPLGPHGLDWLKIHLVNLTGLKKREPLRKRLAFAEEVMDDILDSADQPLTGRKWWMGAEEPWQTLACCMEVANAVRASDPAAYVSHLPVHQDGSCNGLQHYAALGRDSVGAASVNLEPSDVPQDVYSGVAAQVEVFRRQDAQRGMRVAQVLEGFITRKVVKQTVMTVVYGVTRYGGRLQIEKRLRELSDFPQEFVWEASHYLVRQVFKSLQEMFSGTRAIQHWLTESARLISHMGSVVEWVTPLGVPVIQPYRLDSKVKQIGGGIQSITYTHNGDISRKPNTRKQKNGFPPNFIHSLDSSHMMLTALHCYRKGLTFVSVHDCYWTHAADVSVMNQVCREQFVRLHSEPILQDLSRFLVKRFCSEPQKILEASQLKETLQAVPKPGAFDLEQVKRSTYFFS

| SMILES | IC50 |
| --- | --- |
| COC(=O)CN(C)c1ccc2c(-c3ccccc3C)cc(=O)oc2n1 [Example 35, methyl N-methyl-N-(2-oxo-4-(o-tolyl)-2H-pyrano[2,3-b]pyridin-7-yl)glycinate] | 200 nM |
| Cc1ccccc1-c1cc(=O)oc2nc(N3CCN(C)CC3)ccc12 [Example 09, 7-(4-methylpiperazin-1-yl)-4-(o-tolyl)pyrano[2,3-b]pyridin-2-one] | > 100000 nM |
| Cc1ccccc1-c1cc(=O)oc2nc(N3CCCC3)ccc12 [Example 03, 7-(pyrrolidin-1-yl)-4-(o-tolyl)-2H-pyrano[2,3-b]pyridin-2-one] | 200 nM |
| COCC1CCN(c2ccc3c(-c4ccccc4C)cc(=O)oc3n2)C1 (single isomer, unassigned) [Example 31, 7-(3-(methoxymethyl)pyrrolidin-1-yl)-4-(o-tolyl)-2H-pyrano[2,3-b]pyridin-2-one] | 400 nM |
| Cc1ccccc1-c1cc(=O)oc2nc(N3CCOCC3)ccc12 [Example 02, 7-morpholino-4-(o-tolyl)-2H-pyrano[2,3-b]pyridin-2-one] | 2000 nM |
| Cc1ccccc1-c1cc(=O)oc2nc(N3CCC(N(C)C)C3)ccc12 (centres unmarked) [Example 08, 7-[3-(dimethylamino)pyrrolidin-1-yl]-4-(o-tolyl)pyrano[2,3-b]pyridin-2-one] | 18000 nM |
| Cc1ccccc1-c1cc(=O)oc2nc(N(C)C)ccc12 [Example 01, 7-(dimethylamino)-4-(o-tolyl)-2H-pyrano[2,3-b]pyridin-2-one] | 1000 nM |
| Cc1ccccc1-c1cc(=O)oc2nc(N(C)CC(=O)O)ccc12 [Example 36, N-methyl-N-(2-oxo-4-(o-tolyl)-2H-pyrano[2,3-b]pyridin-7-yl)glycine] | 1000 nM |
| CN(CCC(N)=O)c1ccc2c(-c3ccc(F)cc3Cl)cc(=O)oc2n1 [Example 52, 3-((4-(2-chloro-4-fluorophenyl)-2-oxo-2H-pyrano[2,3-b]pyridin-7-yl)(methyl)amino)propanamide] | 10000 nM |
| CNC(=O)CCN(C)c1ccc2c(-c3ccc(F)cc3Cl)cc(=O)oc2n1 [Example 47, 3-((4-(2-chloro-4-fluorophenyl)-2-oxo-2H-pyrano[2,3-b]pyridin-7-yl)(methyl)amino)-N-methylpropanamide] | 57000 nM |
| Cc1ccccc1-c1cc(=O)oc2nc(N(C)CCC(=O)O)ccc12 [Example 41, 3-[methyl-[4-(o-tolyl)-2-oxo-pyrano[2,3-b]pyridin-7-yl]amino]propanoic acid] | 7000 nM |
| Cc1cccc(C)c1-c1cc(=O)oc2nc(N(C)CC(N)=O)ccc12 [Example 56, 2-((4-(2,6-dimethylphenyl)-2-oxo-2H-pyrano[2,3-b]pyridin-7-yl)(methyl)amino)acetamide] | 200 nM |
| Cc1ccccc1-c1cc(=O)oc2nc(N(C)CC(=O)NCC(=O)O)ccc12 [Example 60, N-methyl-N-(2-oxo-4-(o-tolyl)-2H-pyrano[2,3-b]pyridin-7-yl)glycylglycine] | 6000 nM |
| COC(=O)[C@H](C)N(C)c1ccc2c(-c3ccc(F)cc3Cl)cc(=O)oc2n1 [Example 53, methyl N-(4-(2-chloro-4-fluorophenyl)-2-oxo-2H-pyrano[2,3-b]pyridin-7-yl)-N-methyl-L-alaninate] | 1000 nM |
| Cc1ccccc1-c1cc(=O)oc2nc(N(C)CC(N)=O)ccc12 [Example 40, 2-[methyl-[4-(o-tolyl)-2-oxo-pyrano[2,3-b]pyridin-7-yl]amino]acetamide] | 500 nM |
| COC1CCN(c2ccc3c(-c4ccc(F)cc4Cl)cc(=O)oc3n2)C1 (single isomer, unassigned) [Example 26, 4-(2-chloro-4-fluorophenyl)-7-(3-methoxypyrrolidin-1-yl)-2H-pyrano[2,3-b]pyridin-2-one] | 21000 nM |
| CN(CCC(=O)O)c1ccc2c(-c3ccc(F)cc3Cl)cc(=O)oc2n1 [Example 55, 3-((4-(2-chloro-4-fluorophenyl)-2-oxo-2H-pyrano[2,3-b]pyridin-7-yl)(methyl)amino)propanoic acid] | 12000 nM |
| CN(CC(=O)O)c1ccc2c(-c3ccc(F)cc3Cl)cc(=O)oc2n1 [Example 44, N-(4-(2-chloro-4-fluorophenyl)-2-oxo-2H-pyrano[2,3-b]pyridin-7-yl)-N-methylglycine] | 5000 nM |
| COCC1CCN(c2ccc3c(-c4ccccc4C)cc(=O)oc3n2)C1 (racemic) [Example 12, 7-(3-(methoxymethyl)pyrrolidin-1-yl)-4-(o-tolyl)-2H-pyrano[2,3-b]pyridin-2-one] | 900 nM |
| Cc1ccccc1-c1cc(=O)oc2nc(N(C)C(C)C(N)=O)ccc12 (single isomer, unassigned) [Example 48, 2-(methyl(2-oxo-4-(o-tolyl)-2H-pyrano[2,3-b]pyridin-7-yl)amino)propanamide] | 500 nM |
| COC1CCN(c2ccc3c(-c4ccccc4C)cc(=O)oc3n2)C1 (racemic) [Example 07, 7-(3-methoxypyrrolidin-1-yl)-4-(o-tolyl)-2H-pyrano[2,3-b]pyridin-2-one] | 400 nM |
| COCC1CCN(c2ccc3c(-c4ccccc4C)cc(=O)oc3n2)C1 (single isomer, unassigned) [Example 32, 7-(3-(methoxymethyl)pyrrolidin-1-yl)-4-(o-tolyl)-2H-pyrano[2,3-b]pyridin-2-one] | 1000 nM |
| COC1CCN(c2ccc3c(-c4ccccc4C)cc(=O)oc3n2)C1 (single isomer, unassigned) [Example 23, 7-(3-methoxypyrrolidin-1-yl)-4-(o-tolyl)-2H-pyrano[2,3-b]pyridin-2-one] | 90 nM |
| CCN(C)c1ccc2c(-c3ccccc3C)cc(=O)oc2n1 [Example 05, 7-(ethyl(methyl)amino)-4-(o-tolyl)-2H-pyrano[2,3-b]pyridin-2-one] | 400 nM |
| CN(CC(N)=O)c1ccc2c(-c3ccc(F)cc3Cl)cc(=O)oc2n1 [Example 46, 2-((4-(2-chloro-4-fluorophenyl)-2-oxo-2H-pyrano[2,3-b]pyridin-7-yl)(methyl)amino)acetamide] | 2000 nM |
| COC(=O)[C@@H](C)N(C)c1ccc2c(-c3ccc(F)cc3Cl)cc(=O)oc2n1 [Example 54, methyl N-(4-(2-chloro-4-fluorophenyl)-2-oxo-2H-pyrano[2,3-b]pyridin-7-yl)-N-methyl-D-alaninate] | 200 nM |
